Reference: US9132161B2

Legend:
ERβ [1] = biological target: T1, ERβ (Homo sapiens, UniProt Q92731); conditions: in the presence of ERβ
ERβ [2] = biological target: T1, ERβ; experiment: TNF-RE tkLuc repression in U2OS cells, ERβ; assay type: cell-based; parameters: expressed in transfected cells
TNF-RE tkLuc = experiment: Antiestrogen effect on TNF-RE tkLuc (Example 2); assay type: cell-based, human; conditions: for effect on the repression induced by E2: TNF-RE tkLuc; for activation of TNF-RE tkLuc: antiestrogens, in contrast to E2
[3] = tested on: postmenopausal women who have osteoporosis; conditions: median follow-up of 40 months, cited from earlier work
ERβ [4] = biological target: T1, ERβ; experiment: ERE-tk-Luc luciferase assay in U2OS cells, ERβ; assay type: cell-based; parameters: expressed in transfected cells; host or cells: U2OS (human osteosarcoma), electroporated; conditions: competition with herb 6, U2OS cells, FIG. 6
[5] = tested on: women with estrogen receptor-positive breast cancer; conditions: five years of therapy; cited from earlier work
[6] = tested on: women considered to be at high risk for breast cancer; conditions: cited from earlier work

T1 sequence (Q92731 whole entry): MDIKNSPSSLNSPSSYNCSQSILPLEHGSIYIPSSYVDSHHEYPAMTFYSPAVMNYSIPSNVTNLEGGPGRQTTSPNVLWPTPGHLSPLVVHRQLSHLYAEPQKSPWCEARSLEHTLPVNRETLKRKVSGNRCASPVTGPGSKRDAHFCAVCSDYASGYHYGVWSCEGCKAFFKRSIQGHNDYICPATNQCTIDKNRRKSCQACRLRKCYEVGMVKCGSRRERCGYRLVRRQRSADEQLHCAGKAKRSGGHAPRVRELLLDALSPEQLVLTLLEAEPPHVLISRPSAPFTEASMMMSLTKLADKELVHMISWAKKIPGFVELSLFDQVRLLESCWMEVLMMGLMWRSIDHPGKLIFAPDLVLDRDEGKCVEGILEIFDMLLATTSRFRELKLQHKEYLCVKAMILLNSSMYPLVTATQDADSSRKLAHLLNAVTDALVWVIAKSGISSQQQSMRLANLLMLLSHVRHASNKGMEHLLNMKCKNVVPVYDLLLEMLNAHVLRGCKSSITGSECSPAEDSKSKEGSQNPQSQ

SMILES | repression of TNF-α activation of TNF-RE tkLuc (ERβ [1]) | repression of TNF-α activation of TNF-RE (ERβ [2]) | effect on the repression induced by E2 (TNF-RE tkLuc) | activation of TNF-RE tkLuc (TNF-RE tkLuc) | cases of breast cancer in the treatment group ([3]; among 5129 women) | RR of breast cancer versus placebo [3] | effect on herb 6 stimulation of the ERE with ERβ (ERβ [4]) | reduction of mortality from breast cancer [5] | reduction of the risk of recurrences [5] | reduction of the risk of primary invasive breast cancer [6]
C[C@]12CC[C@@H]3c4ccc(O)cc4CC[C@H]3[C@@H]1CC[C@@H]2O [E2, estradiol] | 60-80% | 100% | – | – | – | – | – | – | – | –
C[C@]12CC[C@@H]3c4ccc(O)cc4C[C@@H](CCCCCCCCC[S+]([O-])CCCC(F)(F)C(F)(F)F)[C@H]3[C@@H]1CC[C@@H]2O (some centres unmarked) [ICI 182, 780] | – | – | abolished the repression induced by E2 | 2 fold | – | – | – | – | – | –
O=C(c1ccc(OCCN2CCCCC2)cc1)c1c(-c2ccc(O)cc2)sc2cc(O)ccc12 [raloxifene] | – | – | abolished the repression induced by E2 | 2 fold | 13 cases | 0.24 | inhibited | – | – | –
CC/C(=C(\c1ccccc1)c1ccc(OCCN(C)C)cc1)c1ccccc1 [tamoxifen] | – | – | abolished the repression induced by E2 | 2 fold | – | – | – | 22% | 42% | 49%
